Article PMC11189516, “Structure-guided conversion from an anaplastic lymphoma kinase inhibitor into Plasmodium lysyl-tRNA synthetase selective inhibitors” (Communications Biology, 2024)
Values joined by “and” are separate entries in the source; they are usually repeats but may differ in a detail not shown here. Equal entries are not always repeated. Where two headings read alike, the source gives them in different places. Each block holds one compound with its values, some of them ahead of it.

What was measured:
PfLysRS [1] = molecular target: T1, PfLysRS (Plasmodium falciparum, UniProt Q8IDJ8); assay: ATP hydrolysis assay (Kinase-Glo) on PfLysRS; type: biochemical
T1 construct: PfLysRS (77–583) was constructed in the vector pET20b, with a C-terminal 6×His tag; 6xHis (C); made in house; host or cells: E. coli BL21 (DE3)
T1 sequence (Q8IDJ8 entry or part of it): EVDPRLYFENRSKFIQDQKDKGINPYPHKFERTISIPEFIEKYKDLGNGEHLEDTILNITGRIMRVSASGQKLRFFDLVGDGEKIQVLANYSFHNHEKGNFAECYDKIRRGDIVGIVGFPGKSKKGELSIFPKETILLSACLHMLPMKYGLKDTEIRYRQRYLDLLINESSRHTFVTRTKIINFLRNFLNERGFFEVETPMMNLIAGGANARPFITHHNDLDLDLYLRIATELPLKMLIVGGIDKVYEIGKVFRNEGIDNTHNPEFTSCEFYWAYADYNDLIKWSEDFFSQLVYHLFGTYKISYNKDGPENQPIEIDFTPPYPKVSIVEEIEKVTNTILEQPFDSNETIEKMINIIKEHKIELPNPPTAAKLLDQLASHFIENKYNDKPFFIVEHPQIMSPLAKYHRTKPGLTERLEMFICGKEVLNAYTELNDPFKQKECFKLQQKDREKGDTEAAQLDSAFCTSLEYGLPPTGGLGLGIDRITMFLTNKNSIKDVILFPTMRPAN
Procedure: (§1) The ATP hydrolysis assays were based on Kinase-Glo luminescent Kit (Promega). The experiment was carried out in Corning 384-well white flat bottom microplates. The buffer in the reaction contains 25 mM Hepes pH 7.4, 140 mM NaCl, 40 mM MgCl2, 30 mM KCl, 1 mM TCEP, 0.1 mg·mL^−1 BSA, and 0.004% Tween-20. The compounds were diluted to different concentrations with a 5-fold gradient.
(§2) For LysRS assays, DMSO was added into negative control wells and L-lysine was removed in positive control wells. 100 nM LysRS in 2.5 μL Hepes buffer was mixed with compounds and incubated for 10 min. Then 5 μL substrate mixture (2 μM ATP, 10 μM L-lysine and 31 nM pyrophosphatase) was added to start the reaction at 37 °C and incubated for 6 h.
(§3) When the reaction reaches the planned time, 10 μL diluted Kinase-Glo reagent (1/50 diluted with a buffer containing 50 mM Tris pH 7.5 and 5% glycerol) was added and incubated for 15 min. Luminescence was measured on the Magellan plate reader (Tecan) and nonlinear regression was performed with Prism (GraphPad).

ALK = molecular target: T2, ALK (Homo sapiens, UniProt Q9UM73); assay: ATP hydrolysis assay (Kinase-Glo) on ALK; type: biochemical
T2 construct: The plasmid pCDNA3.1_8×His-tev-ALK (kinase domain, 1068–1410) was constructed; 8xHis (N); TEV site (N); made in house; host or cells: Expi293 cells (transient transfection)
T2 sequence (Q9UM73 1068-1410): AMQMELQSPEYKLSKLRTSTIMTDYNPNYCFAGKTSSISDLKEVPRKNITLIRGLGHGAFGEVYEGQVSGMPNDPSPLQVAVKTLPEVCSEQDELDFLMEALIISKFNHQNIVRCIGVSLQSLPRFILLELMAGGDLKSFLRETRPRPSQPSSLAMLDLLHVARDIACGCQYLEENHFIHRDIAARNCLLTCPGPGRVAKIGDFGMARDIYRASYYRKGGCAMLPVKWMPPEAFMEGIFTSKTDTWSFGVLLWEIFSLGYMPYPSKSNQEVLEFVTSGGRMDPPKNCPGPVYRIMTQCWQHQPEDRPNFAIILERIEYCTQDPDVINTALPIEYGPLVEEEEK
Procedure: as §1
For ALK assays, DMSO was added into negative control wells. 100 nM ALK in 2.5 μL Hepes buffer was mixed with compounds and incubated for 10 min. Then 5 μL substrate (2 μM ATP) was added to start the reaction at 37 °C and incubated for 6 h.
as §3

HsLysRS = molecular target: T3, HsLysRS (Homo sapiens, UniProt Q15046); assay: ATP hydrolysis assay (Kinase-Glo) on HsLysRS; type: biochemical
T3 construct: HsLysRS (70–581) was constructed in the vector pET20b with a C-terminal 6×His tag; 6xHis (C); made in house; host or cells: E. coli (pET20b; 'purified similarly' to PfLysRS, which was expressed in BL21 (DE3))
T3 sequence (Q15046 70-581): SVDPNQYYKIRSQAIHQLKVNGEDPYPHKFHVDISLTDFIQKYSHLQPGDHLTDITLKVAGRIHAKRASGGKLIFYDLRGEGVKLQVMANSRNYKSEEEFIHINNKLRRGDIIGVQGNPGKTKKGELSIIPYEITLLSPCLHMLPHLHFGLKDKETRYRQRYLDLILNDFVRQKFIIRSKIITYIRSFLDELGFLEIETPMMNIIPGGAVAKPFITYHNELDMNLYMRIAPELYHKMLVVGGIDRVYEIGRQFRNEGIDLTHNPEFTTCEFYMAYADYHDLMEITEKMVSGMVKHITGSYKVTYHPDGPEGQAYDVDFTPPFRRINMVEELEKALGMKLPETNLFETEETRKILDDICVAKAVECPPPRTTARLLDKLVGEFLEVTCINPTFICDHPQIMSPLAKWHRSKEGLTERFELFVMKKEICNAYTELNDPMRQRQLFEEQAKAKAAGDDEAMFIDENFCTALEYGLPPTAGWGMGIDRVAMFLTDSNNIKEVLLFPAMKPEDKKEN
Procedure: as §1, §2, §3

PfLysRS [2] = molecular target: T1, PfLysRS; assay: Thermal shift assay; type: binding; settings: for ΔTm of PfLysRS / ΔTm at 200 µM: in the presence of L-lysine
Procedure: PfLysRS protein was prepared at 10 μM concentration in a buffer containing 20 mM Tris pH 8.0, 200 mM NaCl, 500 μM L-lysine, and 200 μM Compound. Aliquots (18 µL) were added to a 96-well PCR plate and incubated at ambient temperature for 10 min. SYPRO Orange dye (Sigma) was diluted in the assay buffer containing 20 mM Tris pH 8.0 and 200 mM NaCl to a 40× concentration, and 2 µL of the 40× dye solution was added to the PCR plate to bring the final assay volume to 20 µL. After complete mixing, the final solutions were heated from 25 to 90 °C at a rate of 0.015 °C per sec, and fluorescence signals were monitored by QuantStudio 3 (Applied Biosystems by Thermo Fisher Scientific).

[3] = test system: erythrocytic-stage P. falciparum 3D7 parasites; assay: In vitro Plasmodium growth assay; type: cell-based, Plasmodium falciparum
Procedure: Parasites were cultured in human O+ erythrocytes according to standard procedures. To prepare the >80% ring stage parasites, asynchronous cultures of parasites were pretreated with 5% sorbitol, and P. falciparum strain 3D7 at the mid-ring stage (6–10 h post-invasion) was used to test antimalarial effects in 96-well plates. Parasites were incubated in a 96-well plate with compound containing 1% parasitemia and, 2% hematocrit for a total volume of 200 μL. […] A relevant DMSO concentration was used as a negative control, and cultured erythrocytes without Plasmodium served as a positive control. The parasites were allowed to grow for 72 h at 37 °C with 5% CO2, 5% O2, and 90% N2. After 72 h, 100 μL of lysis buffer (0.12 mg·mL^−1 Saponin, 0.12% Triton X-100, 30 mM Tris-HCl pH 8.0, and 7.5 mM EDTA) with 5× SYBR Green I (Invitrogen; supplied in 10000× concentration) was added to each well of the plate. The plates were then incubated for 2 h in the dark prior to reading the fluorescence signal at 485 nm excitation and 535 nm emission. The percentage of inhibition was calculated by (NC-fluorescence) × 100/(NC-PC).

[4] = +Lysine, sheet Figure 6B, in °C (unit assumed)

IC50 (PfLysRS [1]; read-out: IC50 against PfLysRS): 365 nM
IC50 (ALK; read-out: IC50 against ALK): > 109000 nM
IC50 (HsLysRS; read-out: IC50 against HsLysRS): 31000 nM
Tm of PfLysRS, Average (PfLysRS [2]; [4]): 50.650
Tm of PfLysRS, single repeat (PfLysRS [2]; [4]): 50.665 and 50.973 and 50.296
SMILES: COc1ccc(OC)c(Nc2ncnc(Nc3ccccc3S(=O)(=O)CCNC(=O)[C@@H](N)CCCCN)n2)c1 [Compound 36K2]

SMILES: COc1cc(N2CCC(N3CCN(C)CC3)CC2)ccc1Nc1ncnc(Nc2ccccc2C2CCCCC2)n1 [Compound 32]
ΔTm of PfLysRS (PfLysRS [2]): 4.1 °C

ΔTm at 200 µM (PfLysRS [2]): 7.9 °C
SMILES: COC(=O)c1ccc(OC)c(Nc2ncnc(Nc3ccccc3S(=O)(=O)C(C)C)n2)c1 [Compound 34]
% Inhibition ([3]; P. falciparum 3D7, Log(Concentration)/nM 2.290, single repeats): 1.182% and -0.03693% and -1.145%
% Inhibition ([3]; P. falciparum 3D7, Log(Concentration)/nM 2.592, single repeats): 1.736% and -0.03693% and 4.616%
% Inhibition ([3]; P. falciparum 3D7, Log(Concentration)/nM 3.193, single repeats): 62.22% and 58.01% and 53.91%
% Inhibition ([3]; P. falciparum 3D7, Log(Concentration)/nM 3.496, single repeats): 92.69% and 87.92% and 85.93%
% Inhibition ([3]; P. falciparum 3D7, Log(Concentration)/nM 3.796, single repeats): 98.34% and 94.68% and 94.24%
% Inhibition ([3]; P. falciparum 3D7, Log(Concentration)/nM 4.097, single repeats): 98.78% and 97.23% and 96.34%
% Inhibition ([3]; P. falciparum 3D7, Log(Concentration)/nM 4.398, single repeats): 101.2% and 100.6% and 98.23%
% Inhibition ([3]; P. falciparum 3D7, Log(Concentration)/nM 4.699, single repeats): 99.67% and 99.22% and 96.9%
% Inhibition ([3]; P. falciparum 3D7, Log(Concentration)/nM 5.000, single repeats): 94.68% and 96.01% and 94.24%
HillSlope (best-fit value) ([3]; Plasmodium falciparum 3D7): 2.802
LogIC50 (best-fit value) ([3]; Plasmodium falciparum 3D7, log of nM): 3.133
IC50 ([3]; Plasmodium falciparum 3D7, source data, read-out: IC50 (best-fit value)): 1360 nM
EC50 ([3]; Plasmodium falciparum, 3D7, 72 h): 1360 ± 40 nM

SMILES: COc1ccc(C)cc1Nc1ncnc(Nc2ccccc2S(=O)(=O)C(C)C)n1 [Compound 39]
ΔTm of PfLysRS (PfLysRS [2]): 4.1 °C

IC50 (PfLysRS [1]; read-out: IC50 against PfLysRS): 2770 nM
IC50 (ALK; read-out: IC50 against ALK): > 66800 nM
IC50 (HsLysRS; read-out: IC50 against HsLysRS): 22000 nM
△Tm of PfLysRS (PfLysRS [2]; +Lysine, sheet Figure 6B): 10.740
Tm of PfLysRS, Average (PfLysRS [2]; [4]): 55.760
Tm of PfLysRS, single repeat (PfLysRS [2]; [4]): 55.867 and 55.929 and 55.806 and 55.437
SMILES: COc1ccc(OC)c(Nc2ncnc(Nc3ccccc3S(=O)(=O)CCCCCNC(=O)[C@@H](N)CCCCN)n2)c1 [Compound 36K5]

HillSlope (best-fit value) (PfLysRS [1]; PfLysRS): 0.6952
LogIC50 (best-fit value) (PfLysRS [1]; PfLysRS, log of nM): 2.755
IC50 (PfLysRS [1]; PfLysRS, source data, read-out: IC50 (best-fit value)): 568 nM
IC50 (PfLysRS [1]; read-out: IC50 against PfLysRS): 568 nM
HillSlope (best-fit value) (ALK; ALK): 0.6894
LogIC50 (best-fit value) (ALK; ALK, log of nM): 2.857
IC50 (ALK; ALK, source data, read-out: IC50 (best-fit value)): 719 nM
IC50 (ALK; read-out: IC50 against ALK): 719 ± 182 nM
HillSlope (best-fit value) (HsLysRS; HsLysRS): 1.205
% Inhibition (HsLysRS; HsLysRS, Log(Concentration)/nM 2.505, single repeats): 3.343% and 6.292% and 8.061%
% Inhibition (HsLysRS; HsLysRS, Log(Concentration)/nM 3.204, single repeats): -0.8065% and 1.795% and 3.658%
% Inhibition (HsLysRS; HsLysRS, Log(Concentration)/nM 3.903, single repeats): 7.774% and 9.643% and 10.78%
% Inhibition (HsLysRS; HsLysRS, Log(Concentration)/nM 4.602, single repeats): 27.95% and 31.1% and 35.27%
% Inhibition (HsLysRS; HsLysRS, Log(Concentration)/nM 5.301, single repeats): 65.61% and 74.02% and 86.84%
% Inhibition (HsLysRS; HsLysRS, Log(Concentration)/nM 6.000, single repeats): 101.8% and 97.59% and 99.58%
LogIC50 (best-fit value) (HsLysRS; HsLysRS, log of nM): 4.923
IC50 (HsLysRS; HsLysRS, source data, read-out: IC50 (best-fit value)): 83700 nM
IC50 (HsLysRS; read-out: IC50 against HsLysRS): 84000 nM
Tm of PfLysRS, Average (PfLysRS [2]; +Lysine): 48.001 °C
ΔTm at 200 µM (PfLysRS [2]): 7.9 °C
SMILES: COc1ncccc1Nc1ncnc(Nc2ccccc2S(=O)(=O)C(C)C)n1 [Compound 38a]
Tm of PfLysRS, single repeat (PfLysRS [2]; +Lysine): 48.109 °C and 48.140 °C and 47.986 °C and 47.770 °C

ΔTm of PfLysRS (PfLysRS [2]): 0 °C
SMILES: COc1ccc(OC)c(Nc2cncc(Nc3ccccc3S(=O)(=O)C(C)C)n2)c1 [Compound 36c]

ΔTm of PfLysRS (PfLysRS [2]): 2.4 °C
SMILES: COc1ccc(OC)c(Nc2nccc(Nc3ccccc3S(=O)(=O)C(C)C)n2)c1 [Compound 36f]

SMILES: COc1ccc([N+](=O)[O-])cc1Nc1ncnc(Nc2ccccc2S(=O)(=O)C(C)C)n1 [Compound 40]
ΔTm of PfLysRS (PfLysRS [2]): 2.5 °C

SMILES: CC(C)S(=O)(=O)c1ccccc1Nc1ncnc(Nc2ccccc2S(=O)(=O)C(C)C)n1 [Compound 37]
ΔTm of PfLysRS (PfLysRS [2]): 0.5 °C
